Measured values taken from article PMC9592857, “Voltage dependence of the cannabinoid CB1 receptor” (Frontiers in Pharmacology, 2022).
Like-named read-outs stand apart in the source and are kept apart here.

How the values were obtained:
Format in all cases: cell-based
CB1 receptor [1] = biological target: T1, CB1 receptor (Homo sapiens, UniProt P21554); settings: for mean time constant of deactivation: same oocyte at both potentials, 10 oocytes
T1 construct: expressed in transfected cells; host or cells: Xenopus laevis oocytes injected with cRNA; plasmid was a gift of Ken Mackie

GIRK channel = biological target: T2, GIRK channel (Homo sapiens, UniProt P48051+P48549); test: Receptor-independent effect on GIRK channels in oocytes expressing the GIRK channel but not the CB1 receptor; settings: for effect of application on GIRK currents: 10 µM, oocyte expressing the GIRK channel only; for direct effect on the GIRK channel: oocytes without CB1 receptor, any membrane potential
T2 construct: expressed in transfected cells; host or cells: Xenopus laevis oocytes injected with cRNA
T2 sequence (P48549 1-501): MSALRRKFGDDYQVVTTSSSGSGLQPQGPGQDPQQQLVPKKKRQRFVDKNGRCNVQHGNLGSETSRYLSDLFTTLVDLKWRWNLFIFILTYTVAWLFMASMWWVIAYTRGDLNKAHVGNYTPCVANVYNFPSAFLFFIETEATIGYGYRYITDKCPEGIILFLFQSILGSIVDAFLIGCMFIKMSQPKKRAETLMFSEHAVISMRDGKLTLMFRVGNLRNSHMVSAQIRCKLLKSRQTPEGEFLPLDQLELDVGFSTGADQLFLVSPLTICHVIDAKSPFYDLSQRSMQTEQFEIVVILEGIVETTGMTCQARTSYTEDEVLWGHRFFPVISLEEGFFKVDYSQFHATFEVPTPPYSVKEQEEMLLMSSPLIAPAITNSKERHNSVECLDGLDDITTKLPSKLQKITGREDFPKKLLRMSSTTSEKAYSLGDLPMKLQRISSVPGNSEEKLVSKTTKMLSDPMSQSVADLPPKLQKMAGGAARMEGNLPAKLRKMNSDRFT
T2 sequence (P48051 1-423): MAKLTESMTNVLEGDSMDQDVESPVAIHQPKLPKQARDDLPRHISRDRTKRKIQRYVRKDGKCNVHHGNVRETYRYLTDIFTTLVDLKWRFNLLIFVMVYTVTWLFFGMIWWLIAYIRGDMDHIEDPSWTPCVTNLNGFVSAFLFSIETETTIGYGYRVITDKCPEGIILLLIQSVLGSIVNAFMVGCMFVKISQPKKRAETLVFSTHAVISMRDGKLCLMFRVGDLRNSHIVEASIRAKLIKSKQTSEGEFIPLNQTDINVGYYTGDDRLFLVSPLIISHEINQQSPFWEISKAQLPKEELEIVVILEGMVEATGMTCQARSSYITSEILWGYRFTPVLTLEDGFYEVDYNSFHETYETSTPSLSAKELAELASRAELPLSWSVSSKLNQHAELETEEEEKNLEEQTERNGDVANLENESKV
Method: Figure S1. […] (A) A representative recording from an oocyte expressing the GIRK channel. […] (B) Current -Voltage (I-V) curve of IK before (black) and after (red) the application of 2-AG. The oocytes were voltage clamped to -80 mV and the currents after depolarizing pulses to various holding potentials from –80 mV to +40 mV at 10 mV increments were measured. Data is mean ± SEM from 7 oocytes. The difference between the two conditions is not significant (paired t-test, p>0.11 for all voltages).
(§1) Figure S2. Effect of AEA on GIRK channels. (A) A representative recording from an oocyte expressing the GIRK channel. […] (B) Current-voltage I-V curve of IK before (black) and after (red) the application of AEA. The oocytes were voltage clamped to -80 mV and the currents after depolarizing pulses to various holding potentials from –80 mV to +40 mV at 10 mV increments were measured. Data is mean ± SEM from 7 oocytes. The difference between the two conditions is not significant (paired t-test, p>0.13 for all voltages).
as §1, with “S3.” for “S2.”, “THC” for “AEA”, “(B)” for “(B) Current-voltage”, “THC.” for “AEA.”, “5” for “7”, “p>0.23” for “p>0.13”

CB1 receptor [2] = biological target: T1, CB1 receptor

T1 sequence (P21554 whole entry): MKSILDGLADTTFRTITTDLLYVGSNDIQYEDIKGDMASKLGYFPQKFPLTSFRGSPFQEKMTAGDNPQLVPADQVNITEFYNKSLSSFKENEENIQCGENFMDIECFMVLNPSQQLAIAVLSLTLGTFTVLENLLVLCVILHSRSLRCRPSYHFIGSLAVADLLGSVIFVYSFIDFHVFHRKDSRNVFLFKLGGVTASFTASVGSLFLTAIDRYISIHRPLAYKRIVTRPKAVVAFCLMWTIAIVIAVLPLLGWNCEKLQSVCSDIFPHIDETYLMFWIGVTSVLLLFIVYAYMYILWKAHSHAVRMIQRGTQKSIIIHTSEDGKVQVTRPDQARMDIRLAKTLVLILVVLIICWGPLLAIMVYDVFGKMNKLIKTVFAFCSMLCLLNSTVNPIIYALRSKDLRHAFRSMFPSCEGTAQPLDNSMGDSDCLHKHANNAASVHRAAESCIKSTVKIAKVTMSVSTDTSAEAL

| Compound | mean time constant of deactivation (CB1 receptor [1]; +40 mV) | dissociation time constant from the receptor (decay of GIRK current after washout) (CB1 receptor [1]; -80 mV, both agonists in the same oocytes, n = 20, mean±SD) [s] | mean time constant of deactivation (CB1 receptor [1]; -80 mV) | effect of application on GIRK currents (GIRK channel) | direct effect on the GIRK channel (GIRK channel) | enhancement of potency toward the CB1 receptor by depolarization (CB1 receptor [2]; +40 mV versus -80 mV) | V50 (the voltage that shows half-maximal effect), Boltzmann fit (CB1 receptor [2]; relative activation by 100 nM agonist, -80 mV to +40 mV) [mV] |
| --- | --- | --- | --- | --- | --- | --- | --- |
| CCCCC/C=C\C/C=C\C/C=C\C/C=C\CCCC(=O)OC(CO)CO [2-AG, 2-Arachidonoylglycerol] | 42.6 ± 19.8 | 30.4 ± 11.7 | 25.4 ± 14.9 | did not evoke GIRK currents or inhibited basal GIRK currents | do not have any direct effect | about 4 fold | −45 |
| CCCCC/C=C\C/C=C\C/C=C\C/C=C\CCCC(=O)NCCO [AEA, anandamide] | – | – | – | did not evoke GIRK currents or inhibited basal GIRK currents | do not have any direct effect | – | – |
| (-)-Δ9-Tetrahydrocannabinol [THC] | – | – | – | did not evoke GIRK currents or inhibited basal GIRK currents | do not have any direct effect | – | – |
